For ten compounds, IC50 results are on record in US20250145665A1, “MACROCYCLIC PEPTIDES USEFUL AS MODULATORS OF TNF ALPHA” (Bristol-Myers Squibb Company, priority 2023, published 2025).

Starred links: 1 amine or outer side, 2 acyl side, 3 side chain; linkers in the order of their positions; H or OH if unused. Positions of bridges follow the written chain, without caps; N, C: chain ends. Non-standard residues stand in square brackets, D forms with d. Residues, ends and D or L forms follow the SMILES beside them. *: point of attachment. Bip(4'-NHCO-C6H4-3-CH2COOH) = N[C@@H](Cc1ccc(-c2ccc(NC(=O)c3cccc(CC(=O)O)c3)cc2)cc1)C(=O)O; Bip(4'-NHCO-C6H4-4-CH2COOH) = N[C@@H](Cc1ccc(-c2ccc(NC(=O)c3ccc(CC(=O)O)cc3)cc2)cc1)C(=O)O; dArg(Nω-CH2C6H4-3-CH2Gua) = N=C(N)NCc1cccc(CNC(=N)NCCC[C@@H](N)C(=O)O)c1; X21 = N=C(NCCC[C@@H](N[*:1])C(=O)[*:2])NC[C@H](O)[C@@H](O)[C@@H](O)CO; Bip(4'-NH) = O=C([C@H](Cc1ccc(-c2ccc(N[*:3])cc2)cc1)N[*:1])[*:2]; Indazole3carbonyl(1-CH2COOH) = O=C(O)Cn1nc(C(=O)*)c2ccccc21; Bip(4'-COOH) = N[C@@H](Cc1ccc(-c2ccc(C(=O)O)cc2)cc1)C(=O)O; dArg(ω-Bn) = N=C(NCCC[C@@H](N)C(=O)O)NCc1ccccc1; Ala(morpholin-4-yl) = N[C@@H](CN1CCOCC1)C(=O)O; Benzoyl(3-OCH2COOH) = O=C(O)COc1cccc(C(=O)*)c1; Phe(3-CONH2) = NC(=O)c1cccc(C[C@H](N)C(=O)O)c1; Bip = N[C@@H](Cc1ccc(-c2ccccc2)cc1)C(=O)O; X13 = O=C([C@H](Cc1ccc[nH]1)N[*:1])[*:2]; Cha = N[C@@H](CC1CCCCC1)C(=O)O; Tle = CC(C)(C)[C@H](N)C(=O)O; Sar = CNCC(=O)O

Chain of TNFα (P01375 77-233 limits assumed): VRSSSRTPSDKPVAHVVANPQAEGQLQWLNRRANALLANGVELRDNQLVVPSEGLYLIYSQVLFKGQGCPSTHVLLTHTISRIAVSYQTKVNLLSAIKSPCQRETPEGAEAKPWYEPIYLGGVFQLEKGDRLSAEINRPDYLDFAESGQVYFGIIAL

The first test has as its target TNFα (Homo sapiens, UniProt P01375). The experiment in a line: TNF-Induced HEK-Blue Assay. Format: cell-based.
Settings: not given
As to `CC[C@H](C)[C@@H]1NC(=O)[C@@H](CCCNC(=N)NCc2cccc(CNC(=N)N)c2)NC(=O)[C@H](CC(=O)O)NC(=O)[C@@H]2CCCN2C(=O)CN(C)C(=O)[C@H](Cc2ccc(-c3ccc(NC(=O)c4nn(CC(=O)O)c5ccccc45)cc3)cc2)NC(=O)[C@H](Cc2ccc(-c3ccccc3)cc2)NC(=O)[C@H](CN2CCOCC2)NC(=O)CSC[C@@H](C(=O)NCC(N)=O)NC(=O)[C@H](CC(C)C)NC(=O)[C@H](Cc2cnc[nH]2)NC(=O)[C@H](C(C)C)NC(=O)[C@@H]2CCCN2C1=O` [Example 598] ({CH2CO}-[Ala(morpholin-4-yl)][Bip][Bip(4'-NH)](Indazole3carbonyl(1-CH2COOH))[Sar]PD[dArg(Nω-CH2C6H4-3-CH2Gua)]IPVHLCG-NH2; thioether N-13), the concentration for half-maximal inhibition (IC50) was under 50 nM.

The compound `CC[C@H](C)[C@@H]1NC(=O)[C@@H](CCCNC(=N)NC[C@H](O)[C@@H](O)[C@@H](O)CO)NC(=O)[C@H](CC(=O)O)NC(=O)[C@@H]2CCCN2C(=O)CN(C)C(=O)[C@H](Cc2ccc(-c3ccc(NC(=O)c4nn(CC(=O)O)c5ccccc45)cc3)cc2)NC(=O)[C@H](Cc2ccc(-c3ccccc3)cc2)NC(=O)[C@H](CN2CCOCC2)NC(=O)CSC[C@@H](C(=O)NCC(N)=O)NC(=O)[C@H](CC(C)C)NC(=O)[C@H](Cc2cnc[nH]2)NC(=O)[C@H](C(C)C)NC(=O)[C@@H]2CCCN2C1=O` [Example 599] ({CH2CO}-[Ala(morpholin-4-yl)][Bip][Bip(4'-NH)](Indazole3carbonyl(1-CH2COOH))[Sar]PD[X21]IPVHLCG-NH2; thioether N-13) showed an IC50 of under 50 nM.

The same test, now with this note: HEK-Blue-CD40L cells, NF-kB-driven secreted alkaline phosphatase reporter; TNFα 0.5 ng/ml; 18 h; read-out: TNF induced HEK-Blue assay IC50 value.
In the case of `CC[C@H](C)[C@@H]1NC(=O)[C@@H](CCCNC(=N)NCc2ccccc2)NC(=O)[C@H](CC(=O)O)NC(=O)[C@H](Cc2cnc[nH]2)NC(=O)CN(C)C(=O)[C@H](Cc2ccc(-c3ccc(NC(=O)c4cccc(OCC(=O)O)c4)cc3)cc2)NC(=O)[C@H](Cc2ccc(-c3ccc(C(=O)O)cc3)cc2)NC(=O)[C@H](CC2CCCCC2)NC(=O)CSC[C@@H](C(=O)NCC(N)=O)NC(=O)[C@H](CC(C)C)NC(=O)[C@H](Cc2cnc[nH]2)NC(=O)[C@H](C(C)C)NC(=O)[C@@H]2CCCN2C1=O` [Example 585] ({CH2CO}-[Cha][Bip(4'-COOH)][Bip(4'-NH)](Benzoyl(3-OCH2COOH))[Sar]HD[dArg(ω-Bn)]IPVHLCG-NH2; thioether N-13), the IC50 lay within 50 to 200 nM.

With `CC[C@H](C)[C@@H]1NC(=O)[C@@H](CCCNC(=N)N)NC(=O)[C@H](CC(=O)O)NC(=O)[C@H](Cc2cnc[nH]2)NC(=O)CN(C)C(=O)[C@H](Cc2ccc(-c3ccc(NC(=O)c4cccc(OCC(=O)O)c4)cc3)cc2)NC(=O)[C@H](Cc2ccc(-c3ccc(C(=O)O)cc3)cc2)NC(=O)[C@H](CC2CCCCC2)NC(=O)CSC[C@@H](C(=O)NCC(N)=O)NC(=O)[C@H](CC(C)C)NC(=O)[C@H](Cc2cccc(C(N)=O)c2)NC(=O)[C@H](C(C)C)NC(=O)[C@@H]2CCCN2C1=O` [Example 586] ({CH2CO}-[Cha][Bip(4'-COOH)][Bip(4'-NH)](Benzoyl(3-OCH2COOH))[Sar]HD[dR]IPV[Phe(3-CONH2)]LCG-NH2; thioether N-13), the IC50 was under 50 nM.

As for `CC(C)C[C@@H]1NC(=O)[C@H](Cc2cccc(C(N)=O)c2)NC(=O)[C@H](C(C)C)NC(=O)[C@@H]2CCCN2C(=O)[C@H](C(C)C)NC(=O)[C@@H](CCCNC(=N)N)NC(=O)[C@H](CC(=O)O)NC(=O)[C@H](Cc2cnc[nH]2)NC(=O)CN(C)C(=O)[C@H](Cc2ccc(-c3ccc(NC(=O)c4cccc(OCC(=O)O)c4)cc3)cc2)NC(=O)[C@H](Cc2ccc(-c3ccc(C(=O)O)cc3)cc2)NC(=O)[C@H](CC2CCCCC2)NC(=O)CSC[C@@H](C(=O)NCC(N)=O)NC1=O` [Example 587] ({CH2CO}-[Cha][Bip(4'-COOH)][Bip(4'-NH)](Benzoyl(3-OCH2COOH))[Sar]HD[dR]VPV[Phe(3-CONH2)]LCG-NH2; thioether N-13), the IC50 is under 50 nM.

For the compound `CC[C@H](C)[C@@H]1NC(=O)[C@@H](CCCNC(=N)N)NC(=O)[C@H](CC(=O)O)NC(=O)[C@H](Cc2cnc[nH]2)NC(=O)CN(C)C(=O)[C@H](Cc2ccc(-c3ccc(NC(=O)c4cccc(CC(=O)O)c4)cc3)cc2)NC(=O)[C@H](Cc2ccc(-c3ccc(C(=O)O)cc3)cc2)NC(=O)[C@H](CC2CCCCC2)NC(=O)CSC[C@@H](C(=O)NCC(N)=O)NC(=O)[C@H](CC(C)C)NC(=O)[C@H](Cc2cccc(C(N)=O)c2)NC(=O)[C@H](C(C)C)NC(=O)[C@@H]2CCCN2C1=O` [Example 588] ({CH2CO}-[Cha][Bip(4'-COOH)][Bip(4'-NHCO-C6H4-3-CH2COOH)][Sar]HD[dR]IPV[Phe(3-CONH2)]LCG-NH2; thioether N-13), the IC50 was under 50 nM.

As for `CC[C@H](C)[C@@H]1NC(=O)[C@@H](CCCNC(=N)N)NC(=O)[C@H](CC(=O)O)NC(=O)[C@H](Cc2cnc[nH]2)NC(=O)CN(C)C(=O)[C@H](Cc2ccc(-c3ccc(NC(=O)c4ccc(CC(=O)O)cc4)cc3)cc2)NC(=O)[C@H](Cc2ccc(-c3ccc(C(=O)O)cc3)cc2)NC(=O)[C@H](CC2CCCCC2)NC(=O)CSC[C@@H](C(=O)NCC(N)=O)NC(=O)[C@H](CC(C)C)NC(=O)[C@H](Cc2cccc(C(N)=O)c2)NC(=O)[C@H](C(C)C)NC(=O)[C@@H]2CCCN2C1=O` [Example 589] ({CH2CO}-[Cha][Bip(4'-COOH)][Bip(4'-NHCO-C6H4-4-CH2COOH)][Sar]HD[dR]IPV[Phe(3-CONH2)]LCG-NH2; thioether N-13), the IC50 was under 50 nM.

`CC(C)C[C@@H]1NC(=O)[C@H](Cc2cccc(C(N)=O)c2)NC(=O)[C@H](C(C)C)NC(=O)[C@@H]2CCCN2C(=O)[C@H](C(C)C)NC(=O)[C@@H](CCCNC(=N)N)NC(=O)[C@H](CC(=O)O)NC(=O)[C@H](Cc2cnc[nH]2)NC(=O)CN(C)C(=O)[C@H](Cc2ccc(-c3ccc(NC(=O)c4cccc(OCC(=O)O)c4)cc3)cc2)NC(=O)[C@H](Cc2ccc(-c3ccc(C(=O)O)cc3)cc2)NC(=O)[C@H](C(C)(C)C)NC(=O)CSC[C@@H](C(=O)NCC(N)=O)NC1=O` [Example 590] ({CH2CO}-[Tle][Bip(4'-COOH)][Bip(4'-NH)](Benzoyl(3-OCH2COOH))[Sar]HD[dR]VPV[Phe(3-CONH2)]LCG-NH2; thioether N-13): the IC50 was under 50 nM.

For the compound `CC[C@H](C)[C@@H]1NC(=O)[C@@H](CCCNC(=N)N)NC(=O)[C@H](CC(=O)O)NC(=O)[C@H](Cc2cnc[nH]2)NC(=O)CN(C)C(=O)[C@H](Cc2ccc(-c3ccc(NC(=O)c4cccc(OCC(=O)O)c4)cc3)cc2)NC(=O)[C@H](Cc2ccc(-c3ccc(C(=O)O)cc3)cc2)NC(=O)[C@H](C(C)(C)C)NC(=O)CSC[C@@H](C(=O)NCC(N)=O)NC(=O)[C@H](CC(C)C)NC(=O)[C@H](Cc2cccc(C(N)=O)c2)NC(=O)[C@H](C(C)C)NC(=O)[C@@H]2CCCN2C1=O` [Example 591] ({CH2CO}-[Tle][Bip(4'-COOH)][Bip(4'-NH)](Benzoyl(3-OCH2COOH))[Sar]HD[dR]IPV[Phe(3-CONH2)]LCG-NH2; thioether N-13), the IC50 was under 50 nM.

Regarding `CC(C)C[C@@H]1NC(=O)[C@H](Cc2ccc[nH]2)NC(=O)[C@H](C(C)C)NC(=O)[C@@H]2CCCN2C(=O)[C@H](C(C)C)NC(=O)[C@@H](CCCNC(=N)N)NC(=O)[C@H](CC(=O)O)NC(=O)[C@H](Cc2cnc[nH]2)NC(=O)CN(C)C(=O)[C@H](Cc2ccc(-c3ccc(NC(=O)c4cccc(CC(=O)O)c4)cc3)cc2)NC(=O)[C@H](Cc2ccc(-c3ccc(C(=O)O)cc3)cc2)NC(=O)[C@H](C(C)(C)C)NC(=O)CSC[C@@H](C(=O)NCC(N)=O)NC1=O` [Example 597] ({CH2CO}-[Tle][Bip(4'-COOH)][Bip(4'-NHCO-C6H4-3-CH2COOH)][Sar]HD[dR]VPV[X13]LCG-NH2; thioether N-13), the IC50 is under 50 nM.

Usually IC50 stands for the concentration that inhibits the measured activity by half.
